Laboratory results from patent US20250296960A1, “PEPTIDE COMPOSITIONS AND METHODS OF USE THEREOF” (priority 2022, published 2025).
Numbered stars: 1 amine (or outer) side, 2 acyl side, 3 side chain; on linkers, the order of the positions; unused ones are H or OH. Square brackets hold non-standard residues; d marks the D form. Side chains are listed from the residue outwards. Ends that are not written are not given here. * marks the point of attachment. C18 = C18 fatty acid (C16-C22 fatty acids conjugated via γGlu/8-amino-3,6-dioxaoctanoic acid spacers); C20 diacid = O=C(O)CCCCCCCCCCCCCCCCCCC(=O)*; γGlu = O=C(O)[C@H](CCC(=O)[*:2])N[*:1]; αMeL = CC(C)C[C@](C)(N)C(=O)O; AEEA = NCCOCCOCC(=O)O; Aib = CC(C)(N)C(=O)O

How the values were obtained:
[1] = Body weight loss in normal C57BL/6 mice, subcutaneous dosing; assay type: in vivo; conditions: for Weight loss (%): normal mice
Description: To confirm the therapeutic effect of the peptide in vivo, polypeptides were administered to mice to measure changes in body weight. […] The peptides were delivered at 0.02% polysorbate 80 (PS80) in PBS and dosing volume was 10 mL/kg. Body weight was monitored 6 h, QD.
To confirm the therapeutic effect of the peptide in obesity, diabetes, or NASH, polypeptides were administered to mice to measure changes in food intake, blood glucose and body weight. […] In addition, a NASH animal model was prepared by feeding a high fat, high fructose, high cholesterol diet to normal C57BL/6 mice (approximately 6 weeks old) for approximately 21 weeks, and increasing the body weights of the mice to approximately 50 g on average. Thereafter, polypeptides were administered by subcutaneous injection at dose of 20 nmol/kg once every other day for 2 weeks. Body weight and food intake were measured once every other day given points of time. After 2 weeks of treatment period, mice were sacrificed, then liver weight, hepatic triglyceride, and NASH related biomarkers were measured.
DD01 administered at 40 nmol/kg, s.c. Q2D as positive control was delivered at 0.02% PS80 in PBS and dosing volume was 10 mL/kg. Body weight was monitored QD for 4 days.
The peptides were delivered at 0.02% PS80 in PBS and dosing volume was 10 mL/kg. Food intake, blood glucose, and body weight changes were monitored QD.

[2] = molecular target: T1, human GLP-1R (Homo sapiens, UniProt P43220); test: cAMP assay (HitHunter cAMP) in GLP-1R-expressing CHO-K1 cells (GLP-1R+ cells); assay type: cell-based
T1 construct: host or cells: CHO-K1
Description: (§1) The cells were seeded in a 96-well plate at 7×10^3 cells/well using cell plate reagent and incubated the cells overnight at 37° C. and 5% CO2. To perform the cAMP detection assay, cell plating reagent were replaced with the cAMP Assay buffer. Each of the wells was then treated with the diluted peptide and incubated for 30 minutes under conditions of a temperature of 37° C. in a CO2 incubator.
(§2) After the incubation, cAMP Antibody reagent and Working cAMP detection solution to all wells. Incubate the plate for 1 hour at Room temperature in the dark. Then, cAMP Solution A was added and incubated for 3 hours at room temperature in the dark. Subsequently, the luminescence was measured using the microplate reader device.

[3] = molecular target: T2, human GCGR (Homo sapiens, UniProt P47871); test: cAMP assay (HitHunter cAMP) in GCGR-expressing CHO-K1 cells (GCGR+ cells); assay type: cell-based
T2 construct: host or cells: CHO-K1
Description: as §1, §2

[4] = molecular target: T3, human GIPR (Homo sapiens, UniProt P48546); test: cAMP assay (HitHunter cAMP) in GIPR-expressing CHO-K1 cells (GIPR+ cells); assay type: cell-based
T3 construct: host or cells: CHO-K1
T3 sequence (P48546 22-466): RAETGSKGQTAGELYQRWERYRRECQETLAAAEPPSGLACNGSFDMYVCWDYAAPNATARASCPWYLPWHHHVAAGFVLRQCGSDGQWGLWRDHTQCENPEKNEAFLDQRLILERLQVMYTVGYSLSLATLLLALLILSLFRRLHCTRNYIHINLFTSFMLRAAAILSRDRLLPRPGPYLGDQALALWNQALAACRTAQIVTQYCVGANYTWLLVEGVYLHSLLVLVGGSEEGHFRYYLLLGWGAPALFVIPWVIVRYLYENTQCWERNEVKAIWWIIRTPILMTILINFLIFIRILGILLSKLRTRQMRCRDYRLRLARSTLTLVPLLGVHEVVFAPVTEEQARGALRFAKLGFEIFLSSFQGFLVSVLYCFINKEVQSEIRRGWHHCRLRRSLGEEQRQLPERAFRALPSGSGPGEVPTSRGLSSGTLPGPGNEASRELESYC
Description: as §1, §2

[5] = 20 nmol/kg QD, Weight loss at 48 hr
[6] = 20 nmol/kg QD, after 48 or 72 hours
[7] = Table 13, EC50 of STD peptide over EC50 of peptide
[8] = Table 14, normalised to activity at GLP-1R

T1 sequence (P43220 24-463): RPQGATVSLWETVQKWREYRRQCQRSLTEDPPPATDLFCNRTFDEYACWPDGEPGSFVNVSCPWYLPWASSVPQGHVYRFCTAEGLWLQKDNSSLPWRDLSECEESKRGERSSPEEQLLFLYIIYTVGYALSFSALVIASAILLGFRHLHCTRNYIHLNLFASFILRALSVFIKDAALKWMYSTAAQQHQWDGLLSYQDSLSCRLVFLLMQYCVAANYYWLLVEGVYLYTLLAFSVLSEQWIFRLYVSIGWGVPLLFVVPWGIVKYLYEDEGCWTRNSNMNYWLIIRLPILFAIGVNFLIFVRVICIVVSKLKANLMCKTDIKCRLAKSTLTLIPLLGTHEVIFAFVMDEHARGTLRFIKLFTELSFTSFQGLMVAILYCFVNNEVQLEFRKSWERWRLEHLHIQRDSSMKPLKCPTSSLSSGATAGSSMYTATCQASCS
T2 sequence (P47871 26-477): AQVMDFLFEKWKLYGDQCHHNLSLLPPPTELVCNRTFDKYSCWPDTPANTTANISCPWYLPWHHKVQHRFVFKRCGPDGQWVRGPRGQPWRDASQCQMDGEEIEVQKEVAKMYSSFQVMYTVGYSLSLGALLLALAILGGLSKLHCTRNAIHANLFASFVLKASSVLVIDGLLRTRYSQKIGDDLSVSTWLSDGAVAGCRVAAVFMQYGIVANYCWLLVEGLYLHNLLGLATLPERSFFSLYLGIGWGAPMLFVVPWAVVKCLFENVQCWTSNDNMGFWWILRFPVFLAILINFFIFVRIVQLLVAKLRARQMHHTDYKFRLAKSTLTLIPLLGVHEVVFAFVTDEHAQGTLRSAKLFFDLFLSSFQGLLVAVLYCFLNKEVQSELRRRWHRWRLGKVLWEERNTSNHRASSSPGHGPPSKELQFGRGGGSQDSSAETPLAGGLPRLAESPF

## YAibQGT FTSDY SKYLD YK*MAR DFVQW LIEGG PSSGA PPPS (Y[Aib]QGTFTSDYSKYLDYK([AEEA-AEEA-γGlu-C18])MARDFVQWLIEGGPSSGAPPPS-NH2) [5-1F, K* = lysine lipidated with 2OEG-γGlu-C18]
[1]; [5]
  Weight loss (%): 21.9 ± 2.5%

## 12-2A: Peptide No. 12-2 lipidated via conjugation to C-terminal cysteine (type A) (Y[Aib]QGTFTSDWSKYLDQQMQQDFVDWLINGGPSSGAPPPSC([AEEA-AEEA-γGlu-C18])-NH2)
[1]; [6]
  Weight loss (%): 2.0 ± 0.9%

## 12-4A: Peptide No. 12-4 lipidated via conjugation to C-terminal cysteine (type A) (H[Aib]QGTFTSDWSKYLDQQMQQDFVDWLINGGPSSGAPPPSC([AEEA-AEEA-γGlu-C18])-NH2)
[1]; [6]
  Weight loss (%): 4.3 ± 0.9%

## 5-4A: Peptide No. 5-4 lipidated via conjugation to C-terminal cysteine (type A) (H[Aib]QGTFTSDYSKYLDYMMQRDFVQWLIEGGPSSGAPPPSC([AEEA-AEEA-γGlu-C18])-NH2)
[1]; [6]
  Weight loss (%): 8.3 ± 0.9%

## 12-7A: Peptide No. 12-7 lipidated via conjugation to C-terminal cysteine (type A) (H[Aib]EGTFTSDWSKYLDQQMAQDFVDWLINGGPSSGAPPPSC([AEEA-AEEA-γGlu-C18])-NH2)
[1]; [6]
  Weight loss (%): 9.5 ± 3.0%

## 12-5A: Peptide No. 12-5 lipidated via conjugation to C-terminal cysteine (type A) (H[Aib]QGTFTSDWSKYLDQQMQQDFVDWLLNGGPSSGAPPPSC([AEEA-AEEA-γGlu-C18])-NH2)
[1]; [6]
  Weight loss (%): 5.4 ± 0.9%

## 5-3A: Peptide No. 5-3 lipidated via conjugation to C-terminal cysteine (type A) (Y[Aib]QGTFTSDYSKLLDYMMQRDFVQWLLEGGPSSGAPPPSC([AEEA-AEEA-γGlu-C18])-NH2)
[1]; Example 5, 20 nmol/kg s.c. QD, 4 days
  body weight loss effect, in words: least effect
[1]; [6]
  Weight loss (%): 5.5 ± 1.6%

## Y-Aib-QGTFTSDYSI-αMeL-LDKK((2-[2-(2-amino-ethoxy)-ethoxy]-acetyl)-(γGlu)-CO-(CH2)18-CO2H)AQ-Aib-AFIEYLLE-Aib-GPSS-Aib-APPPS-NH2 (Y[Aib]QGTFTSDYSI[αMeL]LDKK([AEEA-γGlu-C20 diacid])AQ[Aib]AFIEYLLE[Aib]GPSS[Aib]APPPS-NH2; N-terminus assumed; SMILES CC[C@H](C)[C@H](NC(=O)[C@H](Cc1ccccc1)NC(=O)[C@H](C)NC(=O)C(C)(C)NC(=O)[C@H](CCC(N)=O)NC(=O)[C@H](C)NC(=O)[C@H](CCCCNC(=O)COCCOCCNC(=O)CC[C@H](NC(=O)CCCCCCCCCCCCCCCCCCC(=O)O)C(=O)O)NC(=O)[C@H](CCCCN)NC(=O)[C@H](CC(=O)O)NC(=O)[C@H](CC(C)C)NC(=O)[C@](C)(CC(C)C)NC(=O)[C@@H](NC(=O)[C@H](CO)NC(=O)[C@H](Cc1ccc(O)cc1)NC(=O)[C@H](CC(=O)O)NC(=O)[C@H](CO)NC(=O)[C@@H](NC(=O)[C@H](Cc1ccccc1)NC(=O)[C@@H](NC(=O)CNC(=O)[C@H](CCC(N)=O)NC(=O)C(C)(C)NC(=O)[C@@H](N)Cc1ccc(O)cc1)[C@@H](C)O)[C@@H](C)O)[C@@H](C)CC)C(=O)N[C@@H](CCC(=O)O)C(=O)N[C@@H](Cc1ccc(O)cc1)C(=O)N[C@@H](CC(C)C)C(=O)N[C@@H](CC(C)C)C(=O)N[C@@H](CCC(=O)O)C(=O)NC(C)(C)C(=O)NCC(=O)N1CCC[C@H]1C(=O)N[C@@H](CO)C(=O)N[C@@H](CO)C(=O)NC(C)(C)C(=O)N[C@@H](C)C(=O)N1CCC[C@H]1C(=O)N1CCC[C@H]1C(=O)N1CCC[C@H]1C(=O)N[C@@H](CO)C(N)=O) [EL.EX.14, reference compound]
[1]; 10 nmol/kg QD, after 48 or 72 hours
  Weight loss (%): 11.0 ± 2.4%

## HAibQGT FTSDY SK*LLD YMMQRDFVQWLLEGGPSSGAPPPS (H[Aib]QGTFTSDYSK([AEEA-AEEA-γGlu-C18])LLDYMMQRDFVQWLLEGGPSSGAPPPS-NH2) [5-5D, K* = lysine lipidated with 2OEG-γGlu-C18]
[1]; [5]
  Weight loss (%): 10.3 ± 1.3%

## 12-1A: Peptide No. 12-1 lipidated via conjugation to C-terminal cysteine (type A) (Y[Aib]QGTFTSDWSKYLDQQMAQDFVDWLINGGPSSGAPPPSC([AEEA-AEEA-γGlu-C18])-NH2)
[1]; [6]
  Weight loss (%): 9.0 ± 2.2%

## CC[C@H](C)[C@H](NC(=O)[C@H](CC(C)C)NC(=O)[C@H](Cc1c[nH]c2ccccc12)NC(=O)[C@H](CCC(N)=O)NC(=O)[C@@H](NC(=O)[C@H](Cc1ccccc1)NC(=O)[C@H](CC(=O)O)NC(=O)[C@H](CCCNC(=N)N)NC(=O)[C@H](C)NC(=O)[C@H](CCSC)NC(=O)[C@H](CCSC)NC(=O)[C@H](Cc1ccc(O)cc1)NC(=O)[C@H](CC(=O)O)NC(=O)[C@H](CC(C)C)NC(=O)[C@H](Cc1ccc(O)cc1)NC(=O)[C@H](CCCCNC(=O)CCCC[C@@H]1SC[C@@H]2NC(=O)N[C@@H]21)NC(=O)[C@H](CO)NC(=O)[C@H](Cc1ccc(O)cc1)NC(=O)[C@H](CC(=O)O)NC(=O)[C@H](CO)NC(=O)[C@@H](NC(=O)[C@H](Cc1ccccc1)NC(=O)[C@@H](NC(=O)CNC(=O)[C@H](CCC(N)=O)NC(=O)C(C)(C)NC(=O)[C@@H](N)Cc1c[nH]cn1)[C@@H](C)O)[C@@H](C)O)C(C)C)C(=O)N[C@@H](CCC(=O)O)C(=O)NCC(=O)NCC(=O)N1CCC[C@H]1C(=O)N[C@@H](CO)C(=O)N[C@@H](CO)C(=O)NCC(=O)N[C@@H](C)C(=O)N1CCC[C@H]1C(=O)N1CCC[C@H]1C(=O)N1CCC[C@H]1C(=O)N[C@@H](CO)C(=O)N[C@@H](CSC1CC(=O)N(CCNC(=O)COCCOCCNC(=O)COCCOCCNC(=O)CC[C@H](NC(=O)CCCCCCCCCCCCCCCCC(=O)O)C(=O)O)C1=O)C(N)=O (stereo partly shown) [5B, HAibQGT FTSDY SB*YLD YMMARDFVQWLIEGGPSSGAPPPSC*]
[2]; [7]
  Activity relative to STD peptide (%), GLP-1: 87%
[2]; [8]
  Activity relative to GLP-1 (%), GLP-1: 100%
[3]; [7]
  Activity relative to STD peptide (%), Glucagon: 5%
[3]; [8]
  Activity relative to GLP-1 (%), Glucagon: 6%
[4]; [7]
  Activity relative to STD peptide (%), GIP: 2%
[4]; [8]
  Activity relative to GLP-1 (%), GIP: 2%

## 12-3A: Peptide No. 12-3 lipidated via conjugation to C-terminal cysteine (type A) (Y[Aib]QGTFTSDWSKYLDQQMQQDFVDWLLNGGPSSGAPPPSC([AEEA-AEEA-γGlu-C18])-NH2)
[1]; [6]
  Weight loss (%): 0.2 ± 1.8%

## HAibQGT FTSDY SK*YLD YMMQRDFVQWLIEGGPSSGAPPPS (H[Aib]QGTFTSDYSK([AEEA-AEEA-γGlu-C18])YLDYMMQRDFVQWLIEGGPSSGAPPPS-NH2) [5-4D, K* = lysine lipidated with 2OEG-γGlu-C18]
[1]; [5]
  Weight loss (%): 7.2 ± 0.9%
